According to patent US8163909B2, “Substituted hydroxyethyl amine compounds as beta-secretase modulators and methods of use” (Amgen Inc., priority 2007, dated 2012):
Like-named read-outs stand apart in the source and are kept apart here.

Columns and labels:
[1] = Microsomal stability assay, human liver microsomes;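 also: pooled human liver microsomes at 0.25 mg/mL with 1 µM compound and NADPH at 37 °C, pH 7.4, for 30 min, unchanged parent quantified by LC-MS/MS against the 0 min sample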
[2] = tested on: Aβ40 in conditioned medium of cells stably expressing Amyloid Precursor Protein (APP); test: In vitro BACE cell-based assay (Aβ40 in conditioned medium, sandwich ELISA); conditions: Homo sapiens;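 also: compounds added as a dilution series, secreted peptide quantified by europium time-resolved fluorescence readout, potency fitted from percent of control versus compound concentration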
[3] = Microsomal stability assay, rat liver microsomes;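 also: rat liver microsomes (0.25 mg/mL) with about 1 µM compound plus 1 mM NADPH, pH 7.4, 37 °C for 30 min, parent left measured by LC-MS/MS against 0 min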
[4] = molecular target: Beta Secretase enzyme (BACE) (Homo sapiens, UniProt P56817); test: In vitro enzymatic BACE FRET (fluorescence resonance energy transfer) assay; type: biochemical;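 also: fluorescence read after 1 h with 50 nM quenched peptide substrate spanning the BACE cleavage site, in pH 4.2 acetate buffer containing 10% DMSO and nonionic detergent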
CYP2D6 = CYP2D6 (Homo sapiens, UniProt P10635); test: CYP2D6 inhibition assay (bufuralol, pooled human liver microsomes)
CYP3A4 (CYP3A) = CYP3A4 (CYP3A) (Homo sapiens, UniProt P08684); test: in vitro; conditions: microsomes, pH 7.4;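 also: inhibition of CYP3A-mediated 1-hydroxymidazolam formation after 10 min incubation with NADPH, quantified by HPLC MS relative to metabolite produced without test compound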
[5] = HEK293, HEK cells, read-out: HEK cell assay (IC50)
[6] = read-out: BACE1 FRET assay (IC50)
[7] = HEK293, HEK cell-based assay IC50, read-out: HEK cell assay
[8] = BACE enzyme assay IC50, read-out: BACE1 FRET assay
[9] = 2D6 IC50 (uM), CYP2D6 inhibition
[10] = HEK293, HEK cell-based assay, IC50's in uM, read-out: HEK cell assay
[11] = BACE enzyme assay, IC50's in uM, read-out: BACE1 FRET assay
[12] = 2D6 IC50 (uM), CYP enzyme inhibition
[13] = HEK293, HEK cells, read-out: HEK cell assay
[14] = BACE enzyme assay, read-out: BACE1 FRET assay
[15] = HEK293, Table 2, HEK cells, read-out: HEK cell assay
[16] = Table 2, read-out: BACE1 FRET assay
[17] = 2D6 IC50, CYP enzyme inhibition

Sequence of CYP2D6 (P10635 whole entry): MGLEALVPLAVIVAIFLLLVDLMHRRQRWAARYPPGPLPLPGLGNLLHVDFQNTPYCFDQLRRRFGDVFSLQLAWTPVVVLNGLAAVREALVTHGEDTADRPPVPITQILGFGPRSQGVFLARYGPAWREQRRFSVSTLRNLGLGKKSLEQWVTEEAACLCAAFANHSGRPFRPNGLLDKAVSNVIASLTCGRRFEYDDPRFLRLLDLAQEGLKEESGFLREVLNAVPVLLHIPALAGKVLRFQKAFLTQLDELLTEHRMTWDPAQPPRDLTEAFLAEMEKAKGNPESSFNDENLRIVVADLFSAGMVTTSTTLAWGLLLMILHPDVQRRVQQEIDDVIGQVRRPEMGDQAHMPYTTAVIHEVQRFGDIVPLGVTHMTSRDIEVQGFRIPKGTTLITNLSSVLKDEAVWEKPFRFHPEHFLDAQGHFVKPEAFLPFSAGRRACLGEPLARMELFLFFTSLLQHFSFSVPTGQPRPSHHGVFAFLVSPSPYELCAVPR
Sequence of Beta Secretase enzyme (BACE) (P56817 46-501): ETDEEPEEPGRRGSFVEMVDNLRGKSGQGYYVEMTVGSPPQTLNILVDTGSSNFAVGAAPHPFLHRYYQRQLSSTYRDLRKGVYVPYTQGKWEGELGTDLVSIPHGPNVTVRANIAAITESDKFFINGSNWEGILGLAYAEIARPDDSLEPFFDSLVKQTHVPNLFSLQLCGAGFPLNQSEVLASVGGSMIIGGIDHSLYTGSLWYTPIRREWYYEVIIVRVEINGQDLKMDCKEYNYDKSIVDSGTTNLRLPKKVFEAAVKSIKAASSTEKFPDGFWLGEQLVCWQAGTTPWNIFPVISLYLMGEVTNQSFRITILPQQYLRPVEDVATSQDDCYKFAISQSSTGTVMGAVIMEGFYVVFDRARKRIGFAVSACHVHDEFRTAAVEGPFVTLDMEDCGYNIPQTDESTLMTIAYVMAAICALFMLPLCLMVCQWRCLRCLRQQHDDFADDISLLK
Sequence of CYP3A4 (CYP3A) (P08684 2-503): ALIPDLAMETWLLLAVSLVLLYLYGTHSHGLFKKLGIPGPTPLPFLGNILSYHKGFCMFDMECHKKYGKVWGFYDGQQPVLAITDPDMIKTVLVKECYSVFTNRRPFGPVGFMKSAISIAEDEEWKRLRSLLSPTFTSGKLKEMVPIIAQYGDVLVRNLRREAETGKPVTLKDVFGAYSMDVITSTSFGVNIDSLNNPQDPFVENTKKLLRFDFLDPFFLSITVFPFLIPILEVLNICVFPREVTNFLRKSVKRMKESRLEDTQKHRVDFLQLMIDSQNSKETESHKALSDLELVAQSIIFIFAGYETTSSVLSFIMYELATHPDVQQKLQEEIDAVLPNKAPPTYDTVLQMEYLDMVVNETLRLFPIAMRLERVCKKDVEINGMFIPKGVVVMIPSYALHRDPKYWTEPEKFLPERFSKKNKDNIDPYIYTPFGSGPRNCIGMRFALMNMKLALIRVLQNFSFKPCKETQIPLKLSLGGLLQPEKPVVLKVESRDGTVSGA

Row | SMILES | HLM ([1]; human liver microsomes) [µL/min/mg] | RLM ([3]; rat liver microsomes) [µL/min/mg] | IC50 (CYP3A4 (CYP3A)) [nM] | HLM ([1]; human liver microsomal data) [µL/min/mg] | RLM ([3]; rat liver microsomal data) [µL/min/mg] | IC50 [4, 11] [µM] | IC50 (CYP2D6; [12]) [µM] | other results
1 | CO[C@H](C)C(=O)N[C@@H](Cc1ccc2c(c1)OCO2)[C@H](O)CN[C@H]1CC2(CCC2)Oc2c1cc(CC(C)C)nc2Cl [compound 657, (2R)-N-((1S,2R)-1-(1,3-benzodioxol-5-ylmethyl)-3-(((4′S)-8′-chloro-6′-(2-methylpropyl)-3′,4′-dihydrospiro[cyclobutane-1,2′-pyrano[2,3-c]pyridin]-4′-yl)amino)-2-hydroxypropyl)-2-methoxypropanamide] | 96 | 178 | 160 | – | – | – | – | IC50 [2, 5]: 0.524 µM; IC50 [4, 6]: 0.03 µM; IC50 (CYP2D6; 2D6 IC50, CYP2D6 inhibition): 5.3 µM
2 | Cc1ccccc1CN1CCO[C@H](C(=O)N[C@@H](Cc2ccc(F)cc2)[C@H](O)CN[C@H]2CC3(CCC3)Oc3ncc(CC(C)(C)C)cc32)C1 [compound 697] | 775 | 399 | 200 | – | – | – | – | IC50 [2, 7]: 0.143 µM; IC50 [4, 8]: 0.087 µM; IC50 (CYP2D6; [9]): 2.7 µM
3 | CC(=O)N[C@@H](Cc1ccc(F)cc1)[C@H](O)CN[C@H]1CC2(CCC2)Oc2c1cc(CC(C)(C)C)nc2Nc1ccccc1 [compound 610] | 102 | 213 | ≥ 27000 | – | – | – | – | IC50 [2, 5]: > 10 µM; IC50 [4, 6]: 0.199 µM; IC50 (CYP2D6; 2D6 IC50, CYP2D6 inhibition): ≥ 27 µM
4 | COCC(=O)N[C@@H](Cc1cc(F)cc(-c2nccs2)c1)[C@H](O)CN[C@H]1CC2(CCC2)Oc2ncc(CC(C)C)cc21 [Example 695, N-((1S,2R)-1-(3-fluoro-5-(1,3-thiazol-2-yl)benzyl)-2-hydroxy-3-(((4′S)-6′-(2-methylpropyl)-3′,4′-dihydrospiro[cyclobutane-1,2′-pyrano[2,3-b]pyridin]-4′-yl)amino)propyl)-2-methoxyacetamide] | 77 | 64 | 100 | – | – | – | – | IC50 [2, 7]: 0.011 µM; IC50 [4, 8]: 0.004 µM; IC50 (CYP2D6; [9]): 0.5 µM
5 | CO[C@H](C)C(=O)N[C@@H](Cc1cc(F)cc(-c2nccs2)c1)[C@H](O)CN[C@H]1CC2(CCC2)Oc2ncc(CC(C)C)cc21 [Example 761] | – | – | 100 | 85 | 74 | 1.62 | 0.7 | IC50 [2, 10]: 0.375 µM
6 | CO[C@H](C)C(=O)N[C@@H](Cc1ccccc1)[C@H](O)CN[C@H]1CC2(CCC2)Oc2c(Br)cc(CC(C)C)cc21 [compound 545] | – | – | 1100 | 775 | 775 | – | 8.2 | IC50 [2, 13]: 1.49 µM; IC50 [4, 14]: 0.007 µM
7 | CC(C)Cc1cnc2c(c1)[C@@H](NC[C@@H](O)[C@H](Cc1ccc3c(c1)OCO3)NC(=O)[C@H](C)F)CC1(CCC1)O2 [compound 552] | – | – | 200 | 73 | 253 | – | 2.3 | IC50 [2, 13]: 0.369 µM; IC50 [4, 14]: 0.049 µM
8 | COCC(=O)N[C@@H](Cc1ccc(F)cc1)[C@H](O)CN[C@H]1CC(C)(C)Oc2ncc(CC(C)(C)C)cc21 [compound 663] | 163 | 133 | 1700 | – | – | – | – | IC50 [2, 5]: 0.021 µM; IC50 [4, 6]: 0.013 µM; IC50 (CYP2D6; 2D6 IC50, CYP2D6 inhibition): 10.5 µM
9 | COCC(=O)N[C@@H](Cc1cc(F)cc(F)c1)[C@H](O)CN[C@H]1CC2(CCC2)Oc2c(-c3cncs3)cc(CC(C)(C)C)cc21 [compound 486] | – | – | 200 | 408 | 380 | – | – | IC50 [2, 15]: 0.033 µM; IC50 [4, 16]: 0.004 µM; IC50 (CYP2D6; [17]): 12.8 µM
10 | CO[C@H](C)C(=O)N[C@@H](Cc1cc(F)cc(F)c1)[C@H](O)CN[C@H]1CC2(CCC2)Oc2c1cc(CC(C)C)nc2Cl [compound 686] | 921 | 399 | 200 | – | – | – | – | IC50 [2, 7]: 0.052 µM; IC50 [4, 8]: 0.003 µM; IC50 (CYP2D6; [9]): 6.1 µM
11 | CO[C@H](C)C(=O)N[C@@H](Cc1cc(Cl)ccc1F)[C@H](O)CN[C@H]1CC2(CCC2)Oc2ncc(CC(C)(C)C)cc21 [compound 899] | – | – | 100 | 443 | 543 | 0.005 | – | IC50 ([2]; HEK293, cell-based assay, HEK cells, IC50's in uM, read-out: HEK cell assay): 0.009 µM; IC50 (CYP2D6; [17]): 2.6 µM
12 | COCC(=O)N[C@@H](Cc1ccc(F)cc1)[C@H](O)CN[C@@H]1CC2(CCC2)Oc2c1cc(CC(C)(C)C)nc2C#N [compound 492] | – | – | 400 | 94 | 190 | – | 8.2 | IC50 [2, 13]: 0.462 µM; IC50 [4, 14]: 5.04 µM
13 | CO[C@H](C)C(=O)N[C@@H](Cc1cncs1)[C@H](O)CN[C@H]1CC2(CCC2)Oc2c1cc(CC(C)(C)C)nc2-c1ccccn1 [compound 781] | – | – | 400 | 104 | 82 | 0.071 | ≥ 27 | IC50 [2, 10]: 0.206 µM
14 | COCC(=O)N[C@@H](Cc1cc(F)cc(-c2nccs2)c1)[C@H](O)CN[C@H]1CC2(CCC2)Oc2ncc(CC(C)(C)F)cc21 [Example 724, N-((1S,2R)-3-(((4′S)-6′-(2-fluoro-2-methylpropyl)-3′,4′-dihydrospiro[cyclobutane-1,2′-pyrano[2,3-b]pyridin]-4′-yl)amino)-1-(3-fluoro-5-(1,3-thiazol-2-yl)benzyl)-2-hydroxypropyl)-2-methoxyacetamide] | 45 | 38 | 200 | – | – | – | – | IC50 [2, 7]: 0.009 µM; IC50 [4, 8]: 0.006 µM; IC50 (CYP2D6; [9]): 0.9 µM
15 | COCC(=O)N[C@@H](Cc1cc(F)cc(Cl)c1)[C@H](O)CN[C@H]1CC2(CCC2)Oc2ncc(CC(C)(F)F)cc21 [compound 799] | – | – | 500 | 663 | 236.5 | 0.008 | 4.95 | IC50 [2, 10]: 0.019 µM
16 | CO[C@H](C)C(=O)N[C@@H](Cc1cc(F)cc(-c2nccs2)c1)[C@H](O)CN[C@H]1CC2(CCC2)Oc2ccc(CC(C)C)cc21 [compound 770] | – | – | 300 | 145 | 201 | 0.01 | 0.5 | IC50 [2, 10]: 0.052 µM
17 | CC(=O)N[C@@H](Cc1cc(F)cc(F)c1)[C@H](O)CN[C@H]1CC2(CCC2)Oc2ncc(C(F)(F)C(C)(C)C)cc21 [compound 627] | 829 | 166 | 2100 | – | – | – | – | IC50 [2, 5]: 0.047 µM; IC50 [4, 6]: 0.007 µM; IC50 (CYP2D6; 2D6 IC50, CYP2D6 inhibition): 26.1 µM
18 | CO[C@H](C)C(=O)N[C@@H](Cc1ccc2c(c1)OCO2)[C@H](O)CN[C@H]1CC2(CCC2)Oc2c1cc(CC(C)(C)C)nc2N(C)C [compound 444] | – | – | 7500 | 399 | 662 | – | – | IC50 [2, 15]: 0.777 µM; IC50 [4, 16]: 0.298 µM; IC50 (CYP2D6; [17]): 9.4 µM
19 | C#Cc1cccc(C[C@H](NC(=O)C(OC)OC)[C@H](O)CN[C@H]2CC3(CCC3)Oc3ncc(CC(C)(F)F)cc32)c1 [compound 830] | – | – | 100 | 28 | 35 | 0.007 | 1.3 | IC50 [2, 10]: 0.023 µM
20 | CC(C)(C)Cc1cnc2c(c1)[C@@H](NC[C@@H](O)[C@H](Cc1ccc(F)cc1)NC(=O)[C@@H]1CN(Cc3cscn3)CCO1)CC1(CCC1)O2 [compound 786] | – | – | 300 | 169 | 129 | 0.047 | 7.9 | IC50 [2, 10]: 0.029 µM
21 | COCC(=O)N[C@@H](Cc1ccc(F)cc1)[C@H](O)CN[C@H]1CC2(CCC2)Oc2nc(C)c(CC(C)(C)C)cc21 [compound 468] | – | – | 500 | 736 | 662 | – | – | IC50 [2, 15]: 0.108 µM; IC50 [4, 16]: 0.097 µM; IC50 (CYP2D6; [17]): 9.6 µM
22 | COC(OC)C(=O)N[C@@H](Cc1ccc2c(c1)OCO2)[C@H](O)CN[C@H]1CC2(CCC2)Oc2ncc(CC(C)C)cc21 [compound 754, N-((1S,2R)-1-(1,3-benzodioxol-5-ylmethyl)-2-hydroxy-3-(((4′S)-6′-(2-methylpropyl)-3′,4′-dihydrospiro[cyclobutane-1,2′-pyrano[2,3-b]pyridin]-4′-yl)amino)propyl)-2,2-dimethoxyacetamide] | 29 | 86 | 100 | – | – | – | – | IC50 [2, 7]: 0.054 µM; IC50 [4, 8]: 0.037 µM; IC50 (CYP2D6; [9]): 3.5 µM
23 | CO[C@H](C)C(=O)N[C@@H](Cc1cc(F)cc(Cl)c1)[C@H](O)CN[C@H]1CC2(CCC2)Oc2ncc(CC(C)(F)F)cc21 [compound 820] | – | – | 300 | 682 | 324 | 0.022 | 3.8 | IC50 [2, 10]: 0.021 µM
24 | COCC(=O)N[C@@H](Cc1ccc(F)c(-c2ncc(C)s2)c1)[C@H](O)CN[C@H]1CC2(CCC2)Oc2ncc(CC(C)(C)C)cc21 [compound 729] | 371 | 399 | 400 | – | – | – | – | IC50 [2, 7]: 0.291 µM; IC50 [4, 8]: 0.048 µM; IC50 (CYP2D6; [9]): 3.9 µM
